Measured values taken from patent US11485728B2, “Small molecules for the treatment of autoimmune diseases and cancer” (Athos Therapeutics, Inc., priority 2020, dated 2022).

How the values were obtained:
[1] = In-vitro half-life in human liver microsomes; format: in vitro ADME; conditions: Human liver microsomes 0.5 mg/mL; 1 μg/mL drug; NRS; read-out: Metabolic Half-life
Experimental: (§1) In each of the species (human, rat, mouse) of liver matrix to be tested, a working concentration of 2 μg/mL was prepared of each test article from the 0.5 mg/mL DMSO stock solution by adding 3 μL of 0.5 mg/mL test article stock solution to 747 μL of the 1 mg/mL liver matrix. Incubation was performed at 37±2° C. with gentle, continuous mixing in shaking water bath in 2.0 mL-well capacity 96-Deepwell plates (96-DWP). Samples were retrieved in duplicate at the following time points: 0, 5, 10, 15, 30 and 60 minutes. The final mixture contained 1 μg/mL of drug and 0.5 mg/mL of liver matrix. First, 50 μL of test articles in liver matrix was added to the 96-DWP and pre-warmed the mixture in the 96-DWP for 2 minutes in the 37° C. water bath. The enzymatic reaction was started by the addition of 50 μL of the corresponding 2× NADPH regenerating system (NRS) cofactor solution to all sample wells and stopped by the addition of 300 μL of stop solution (acetonitrile containing 10 ng/mL Tolbutamide as an internal standard (I.Std.). The samples were agitated for 10 minutes and then centrifuged for 20 minutes at 4500 rpm. 25 μL of supernatant was diluted with 475 μL acetonitrile containing I. Std. into a new 96-DWPs for LC-MS/MS analysis.
(§2) Half-life calculations were generated and calculated by Graphpad Prism® software. The half-life of test compound was calculated based on the first-order reaction kinetics. The data was transformed to linear regression (y=log(y) where “y” axis represents the % compound remaining at any given time with respect to time 0 minutes; “x” axis represents time in minutes) in order to calculate the half-life.
(§3) A comparison of metabolic stability in time-course incubation experiments in varying species of liver can provide information of pharmacokinetic properties of drugs attributable to species-related differences in hepatic metabolism. The results of these experiments often assist in further applications such as assessing in vitro metabolite profiling and choosing relevant species for toxicology studies based on similarities relative to the metabolic stability to the human profile. For these experiments, the test compound was tested in parallel with a positive control, Dasatinab, in an enzymatic reaction solution of each species (human and rat) of liver microsomes containing a NADPH regenerating system (NRS). The final mixture contained 1 μg/mL of drug and 0.5 mg/mL of liver matrix. Incubations were performed at 37±2° C. with gentle, continuous mixing in shaking water bath in 96-Deep well plates. The stability of the test compound is monitored using fast, specific and sensitive LC/MS/MS analysis.

[2] = In-vitro half-life in mouse liver microsomes; format: in vitro ADME; conditions: Mouse liver microsomes 0.5 mg/mL; 1 μg/mL drug; NRS; read-out: Metabolic Half-life
Experimental: as §1, §2, §3

CYP2C9 = target: T1, CYP2C9 (Homo sapiens, UniProt P11712); assay: CYP-direct inhibition, CYP2C9; format: in vitro ADME
T1 construct: from tissue; host or cells: pooled human liver microsomes
Experimental: (§4) Many drugs inhibit cytochrome P450 enzymes to cause clinically significant changes in the pharmacokinetics of other drugs. In vitro cytochrome P450 inhibition, can provide crucial information in evaluating potential clinical drug-drug interactions and is useful for focusing in vivo tests to areas of concern. The cytochrome P450 inhibition assay was developed by preparing a working cocktail solution consisting of six probe substrates 10 μM ethoxy-resorufin (CYP1A2), 100 μM rosiglitazone (CYP2C8), 50 μM diclofenac (CYP2C9), 300 μM S-mephenytoin (CYP2C19), 50 μM dextromethorphan (CYP2D6), and 20 μM midazolam (CYP3A4). A mixture solution consists of 140 uL of 0.286 mg/mL of pooled human liver microsome working solution and 20 uL working solutions of test articles, standard control inhibitors, or positive control placebo and 20 uL of substrate cocktail mixture working solution was prepared. The mixture solution was pre-warm in a gentle shaking bath at 37±2° C. for 5 minutes. The enzymatic reaction started by adding 20 uL of NRS working solution to the mixture solution and incubated for 10 minutes at 37±2° C. To stop the reaction, an addition of 400 μL cold stop solution (acetonitrile containing 50 ng/mL Tolbutamide as an internal standard (I.Std.) was added to the mixture solution. The final concentration of test article, inhibitors, substrates, and cofactors are noted in Table 0.1 below. Two individual samples were prepared for each test compound. The extracted samples were vortexed and then centrifuged at 4500 rpm for 7 minutes using Eppendorf Centrifuge 5910R. 200 uL of supernatant was diluting with 200 uL of 50% Methanol into 96-DW plate for LC/MS/MS analysis
(§5) Concentration-response plots are used to determine the effects of an inhibitor on an enzymatic reaction. A typical concentration-response plot provides fractional activity (Y axis) is plotted as a function of log inhibitor concentration (X axis). The data are fitted using a standard Sigmoidal dose-response equation which is also called a […] logistic equation. The concentration of compound that results in 50% inhibition of maximal activity is termed as the IC50 (inhibitor concentration yielding 50% inhibition). IC50 value is calculated using Prism GraphPad software, version 9. […].
(§6) Cytochrome P450 inhibition of a drug is a key factor in determining pharmacokinetic drug-drug interactions. The objective of this study was to evaluate the inhibition potential of G9a inhibitors on six (6) major human cytochrome P450 enzymes, including CYP1A2, CYP2C8, CYP2C9, CYP2C19, CYP2D6, and CYP3A4. Inhibition was determined by using a substrate cocktail and analyzing the rate of specific metabolites formation. The cytochrome P450 inhibition assay was developed using a cocktail consisting of six (6) probe substrates ethoxy-resorufin (CYP1A2), rosiglitazone (CYP2C8), diclofenac (CYP2C9), S-mephenytoin (CYP2C19), dextromethorphan (CYP2D6), and midazolam (CYP3A4). The cocktail was incubated in human liver microsome with NADPH regenerating system (NRS) in a shaking bath at 37±2° C. The formation of specific metabolites was monitored by LC/MS/MS. Test compound was added to the cocktail-liver microsome mixture at varying concentrations and its effect on cytochrome P450 activity was determined by analyzing the rate of specific metabolite formation. The percent inhibition was calculated and plotted with reference to the concentration, and the IC50 value for inhibition was derived by fitting the data with a using log(inhibitor) vs. normalized response with variable slope least squares fit by Graphpad Prism® software. […].

CYP2C19 = target: T2, CYP2C19 (Homo sapiens, UniProt P33261); assay: CYP-direct inhibition, CYP2C19; format: in vitro ADME
T2 construct: from tissue; host or cells: pooled human liver microsomes
Experimental: as §4, §5, §6

CYP2D6 = target: T3, CYP2D6 (Homo sapiens, UniProt P10635); assay: CYP-direct inhibition, CYP2D6; format: in vitro ADME; conditions: human liver microsome; substrate dextromethorphan; read-out: IC50 CYP-2D6
T3 construct: from tissue; host or cells: pooled human liver microsomes
Experimental: as §4, §5, §6

CYP3A4 = target: T4, CYP3A4 (Homo sapiens, UniProt P08684); assay: CYP-direct inhibition, CYP3A4; format: in vitro ADME
T4 construct: from tissue; host or cells: pooled human liver microsomes
Experimental: as §4, §5, §6

PAMPA permeability = conditions: PAMPA, 5 hours at RT
Text: Parallel artificial membrane permeability (PAMPA) assay is a non-cell based assay designed to predict in vivo biological membrane permeability of drugs in early stage of drug discovery. […] The Corning Gentest Pre-coated PAMPA plate system was designed by 96-well insert system with a 0.45 μm PVDF (polyvinylidene fluoride) filter plate which has been pre-coated with structured tri-layers of phospholipids (lipid/oil/lipid) and a matched receiver microplate.
Donor solutions of test compounds (300 μL, 20 μM in PBS/MeOH 90:10) were added to each well of the donor plate. 200 μL of PBS/MeOH 90:10 was added to each well of the acceptor plate. The acceptor plate was coupled with the donor plate and incubated for 5 hours at room temperature (RT) without agitation. In each plate, compounds were tested in triplicate. At the end of the incubation, drug concentration in the initial donor solution, acceptor and the donor wells were determined using LC/MS/MS. A five (5) points standard curve from 0.1 to 1000 nM for each test compound were prepared. Analyte samples were diluted to within standard curve concentration with ACN/H2O 50:50 prior analysis.
All samples were analyzed by electrospray ionization (ESI) liquid chromatograph/mass spectrometry (LC/MS) system utilizing Sciex 5500 quadropule ion trap (Qtrap) mass spectrometry with Shidmazu Nexera X2 UHPLC. The LC-MS/MS instrument monitored each of the test compound in the study based of their respective mass-to-charge (m/z) transitions and MS parameters. Chromatographic separation was achieved on Phenomenex Luna C18 column (50×2.0 mm, 3 μm particle size) by using a gradient elution: mobile phase A contains 0.1% formic acid in water and mobile phase B contains 0.1% formic acid in acetonitrile; A/B (99:1) from 0 to 1 minutes; to A/B (1:99) from 1 to 4 minutes; A/B (1:99) from 4 to 8 minutes; to A/B (99:1) from 8 to 8.20 minutes; A/B (99:1) from 8.2 to 9 minutes. The flow rate was 0.4 mL/min and the column temperature was maintained at 35° C. and autosampler temperature at 4° C. For detection, the electrospray ionization operated in the positive mode using multiple reaction monitoring (MRM).
Data acquisition, and peak integrations were obtained by Analyst® Version 1.7.1 (Sciex) operating with Windows® (Microsoft). The standard curve regressions and sample concentrations were generated and calculated by Analyst®. Concentrations in the sample solutions were determined based on the measured peak area ratios from the response of the analyte to the internal standard with reference to the standard calibration curve. All sample calculations were calculated using a linear regression with 1/x^2 weighting (where x is the concentration of given calibration standard level).
Permeability of the test compounds was calculated using the following formula:
The permeability of compounds was evaluated with the parallel artificial membrane permeation assay (PAMPA) as an in vivo model of passive diffusion across a porous filter coated with a lipid/oil/lipid tri-layer artificial membrane. […] Donor solutions of test compounds (300 μL, 20 μM in PBS/MeOH 90:10) were added to each well of the donor plate. 200 μL of PBS/MeOH 90:10 was added to each well of the acceptor plate. The acceptor plate was coupled with the donor plate and incubated for 5 hours at room temperature (RT) without agitation. In each plate, compounds were tested in triplicate. At the end of the incubation, drug concentration in the initial donor solution, acceptor and the donor wells were determined using LC/MS/MS. Permeability of test compounds was calculated based on the formula described in the General Procedures above. The PAMPA permeability classification criteria are categorized into three (3) classes with a high (Pe≥1.5×10−6 cm/s), intermediate (5.5×10−8<Pe<1.5×10−6 cm/s), and low (Pe<5.5×10−8 cm/s) permeability.

[3] = PAMPA permeability Classification, 20 μM donor
[4] = Permeability, Pe, 20 μM donor in PBS/MeOH 90:10

T3 sequence (P10635 whole entry): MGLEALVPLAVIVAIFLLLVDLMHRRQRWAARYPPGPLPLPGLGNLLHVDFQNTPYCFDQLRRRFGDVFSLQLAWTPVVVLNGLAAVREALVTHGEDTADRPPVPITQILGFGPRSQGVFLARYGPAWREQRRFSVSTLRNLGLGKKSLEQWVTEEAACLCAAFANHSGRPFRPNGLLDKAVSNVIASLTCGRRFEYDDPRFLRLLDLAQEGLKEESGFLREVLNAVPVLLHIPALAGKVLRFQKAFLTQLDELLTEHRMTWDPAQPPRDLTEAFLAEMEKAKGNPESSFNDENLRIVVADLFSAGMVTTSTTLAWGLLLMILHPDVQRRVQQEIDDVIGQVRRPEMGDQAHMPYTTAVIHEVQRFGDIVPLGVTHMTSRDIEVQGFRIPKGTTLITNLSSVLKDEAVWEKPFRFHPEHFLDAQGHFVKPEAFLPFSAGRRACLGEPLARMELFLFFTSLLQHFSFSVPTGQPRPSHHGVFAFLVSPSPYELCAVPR
T4 sequence (P08684 whole entry): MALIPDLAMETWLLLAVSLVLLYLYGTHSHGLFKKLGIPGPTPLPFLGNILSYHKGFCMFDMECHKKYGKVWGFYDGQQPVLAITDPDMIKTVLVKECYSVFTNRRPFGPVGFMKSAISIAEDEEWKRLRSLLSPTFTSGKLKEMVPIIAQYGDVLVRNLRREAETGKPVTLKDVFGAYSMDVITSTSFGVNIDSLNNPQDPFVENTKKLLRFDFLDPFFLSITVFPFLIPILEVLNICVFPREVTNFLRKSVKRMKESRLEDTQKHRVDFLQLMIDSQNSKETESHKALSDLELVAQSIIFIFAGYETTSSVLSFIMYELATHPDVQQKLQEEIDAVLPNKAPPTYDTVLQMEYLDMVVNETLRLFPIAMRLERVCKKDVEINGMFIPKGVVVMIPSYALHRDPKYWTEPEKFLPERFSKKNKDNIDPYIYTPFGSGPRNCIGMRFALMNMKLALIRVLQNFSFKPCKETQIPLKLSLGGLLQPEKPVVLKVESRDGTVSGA
T2 sequence (P33261 whole entry): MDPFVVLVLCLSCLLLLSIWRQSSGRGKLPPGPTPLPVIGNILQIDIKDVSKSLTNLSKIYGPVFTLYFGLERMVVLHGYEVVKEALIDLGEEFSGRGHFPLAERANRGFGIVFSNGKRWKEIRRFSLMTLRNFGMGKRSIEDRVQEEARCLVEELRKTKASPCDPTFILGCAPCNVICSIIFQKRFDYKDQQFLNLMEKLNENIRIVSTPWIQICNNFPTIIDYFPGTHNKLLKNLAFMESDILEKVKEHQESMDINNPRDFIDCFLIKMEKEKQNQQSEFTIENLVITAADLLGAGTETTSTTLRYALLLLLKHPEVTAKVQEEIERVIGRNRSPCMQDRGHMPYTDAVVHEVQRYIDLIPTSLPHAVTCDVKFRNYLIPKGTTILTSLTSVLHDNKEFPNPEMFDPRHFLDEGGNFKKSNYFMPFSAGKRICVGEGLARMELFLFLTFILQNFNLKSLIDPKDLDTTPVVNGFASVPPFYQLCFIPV
T1 sequence (P11712 whole entry): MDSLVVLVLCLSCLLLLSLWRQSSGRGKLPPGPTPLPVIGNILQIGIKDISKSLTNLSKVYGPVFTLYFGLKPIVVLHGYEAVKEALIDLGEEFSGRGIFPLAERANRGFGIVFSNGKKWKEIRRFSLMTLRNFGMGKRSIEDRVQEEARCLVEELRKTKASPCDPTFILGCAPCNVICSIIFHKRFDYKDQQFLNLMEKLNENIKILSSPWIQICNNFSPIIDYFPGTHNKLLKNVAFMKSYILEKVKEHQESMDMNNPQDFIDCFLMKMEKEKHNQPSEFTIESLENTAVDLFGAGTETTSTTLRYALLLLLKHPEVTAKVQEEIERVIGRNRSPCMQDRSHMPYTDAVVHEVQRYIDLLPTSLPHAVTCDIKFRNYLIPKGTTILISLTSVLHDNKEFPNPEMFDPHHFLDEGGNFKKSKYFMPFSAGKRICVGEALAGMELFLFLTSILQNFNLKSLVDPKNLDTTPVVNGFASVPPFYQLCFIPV

| SMILES | half-life at 1 μg/mL [1] [h] | half-life at 1 μg/mL [2] [h] | IC50 (CYP2C9) [µM] | IC50 (CYP2C19) [µM] | IC50 (CYP2D6) [µM] | IC50 (CYP3A4) [µM] | Papp at 5 h, 20 μM (PAMPA permeability; [3]) [×10⁻⁶ cm/s] | Papp at 5 h, 20 μM (PAMPA permeability; [4]) [×10⁻⁶ cm/s] |
| --- | --- | --- | --- | --- | --- | --- | --- | --- |
| COc1cc2c(NC3CCS(=O)(=O)CC3)nc(N3CCCC3)nc2cc1OCCCN1CCCC1 [Compound 80, 4-((6-methoxy-2-(pyrrolidin-1-yl)-7-(3-(pyrrolidin-1-yl)propoxy)quinazolin-4-yl)amino)tetrahydro-2H-thiopyran 1,1-dioxide] | > 1 | > 1 | > 100 | > 100 | 43 | > 100 | < 0.055 | 0.00298 |
| COc1cc2c(NC3CCS(=O)(=O)CC3)nc(N3CCOCC3)nc2cc1OCCCN1CCCC1 [Compound 102, 4-((6-methoxy-2-morpholino-7-(3-(pyrrolidin-1-yl)propoxy)quinazolin-4-yl)amino)tetrahydro-2H-thiopyran 1,1-dioxide] | > 1 | > 1 | > 100 | > 100 | 29 | > 100 | < 0.055 | 0.000648 |
| COc1cc2c(NC3CCS(=O)(=O)CC3)nc(N3CCS(=O)(=O)CC3)nc2cc1OCCCN1CCCC1 [Compound 103, 4-(4-((1,1-dioxidotetrahydro-2H-thiopyran-4-yl)amino)-6-methoxy-7-(3-(pyrrolidin-1-yl)propoxy)quinazolin-2-yl)thiomorpholine 1,1-dioxide] | > 1 | > 1 | > 100 | > 100 | > 100 | > 100 | < 0.055 | 0.0119 |
| COc1cc2c(NC3CCS(=O)(=O)CC3)nc(N3CCN(C)CC3)nc2cc1OCCCN1CCCC1 [Compound 109, 4-((6-methoxy-2-(4-methylpiperazin-1-yl)-7-(3-(pyrrolidin-1-yl)propoxy)quinazolin-4-yl)amino)tetrahydro-2H-thiopyran 1,1-dioxide] | 0.342 | > 1 | > 100 | > 100 | > 100 | > 100 | < 0.055 | 0.00475 |
| COc1cc2c(NC3CCS(=O)(=O)CC3)nc(N3CCCN(C)CC3)nc2cc1OCCCN1CCCC1 [Compound 110, 4-((6-methoxy-2-(4-methyl-1,4-diazepan-1-yl)-7-(3-(pyrrolidin-1-yl)propoxy)quinazolin-4-yl)amino)tetrahydro-2H-thiopyran 1,1-dioxide] | > 1 | > 1 | > 100 | > 100 | > 100 | > 100 | < 0.055 | 0.00676 |
| COc1cc2c(Nc3ccncc3)nc(-n3ccnc3)nc2cc1OCCCN1CCCC1 [Compound 130, 2-(1H-imidazol-1-yl)-6-methoxy-N-(pyridin-4-yl)-7-(3-(pyrrolidin-1-yl)propoxy)quinazolin-4-amine] | > 1 | 0.535 | 65.5 | 75.7 | 4.88 | 3.85 | < 0.055 | 0.0129 |

Further lines, results first:

| half-life at 1 μg/mL [1] [h] | half-life at 1 μg/mL [2] [h] | IC50 (CYP2C9) [µM] | IC50 (CYP2C19) [µM] | IC50 (CYP2D6) [µM] | IC50 (CYP3A4) [µM] | Papp at 5 h, 20 μM (PAMPA permeability; [3]) [×10⁻⁶ cm/s] | Papp at 5 h, 20 μM (PAMPA permeability; [4]) [×10⁻⁶ cm/s] | SMILES |
| --- | --- | --- | --- | --- | --- | --- | --- | --- |
| > 1 | 0.988 | > 100 | > 100 | 4.72 | > 100 | < 0.055 | 0.00225 | COc1cc2c(NC3CCN(C(C)C)CC3)nc(-n3ccnc3)nc2cc1OCCCN1CCCC1 [Compound 156, 2-(1H-imidazol-1-yl)-N-(1-isopropylpiperidin-4-yl)-6-methoxy-7-(3-(pyrrolidin-1-yl)propoxy)quinazolin-4-amine] |
| > 1 | > 1 | > 100 | > 100 | 64.9 | > 100 | < 0.055 | 0.000555 | COc1cc2c(NC3CCN(C(C)C)CC3)nc(-n3cccn3)nc2cc1OCCCN1CCCC1 [Compound 157, N-(1-isopropylpiperidin-4-yl)-6-methoxy-2-(1H-pyrazol-1-yl)-7-(3-(pyrrolidin-1-yl)propoxy)quinazolin-4-amine] |
| > 1 | 0.637 | > 100 | > 100 | 65.6 | > 100 | < 0.055 | 0.00453 | COc1cc2c(N[C@H]3CCCNC3)nc(N3CCCC3)nc2cc1OCCCN1CCCC1 [Compound 158, (S)-6-methoxy-N-(piperidin-3-yl)-2-(pyrrolidin-1-yl)-7-(3-(pyrrolidin-1-yl)propoxy)quinazolin-4-amine] |
| > 1 | 0.655 | > 100 | > 100 | 50.9 | > 100 | < 0.055 | 0.0227 | COc1cc2c(N[C@@H]3CCCNC3)nc(N3CCCC3)nc2cc1OCCCN1CCCC1 [Compound 159, (R)-6-methoxy-N-(piperidin-3-yl)-2-(pyrrolidin-1-yl)-7-(3-(pyrrolidin-1-yl)propoxy)quinazolin-4-amine] |
